Data taken from US20100204140A1, “USE OF A PEPTIDE AS A THERAPEUTIC AGENT” (priority 2007, published 2010).

Tests used:
[1] = system: HIV-1IIIB in CEM-SS cells; experiment: HIV-1 antiviral assay (CPE reduction, MTS); type: cell-based; conditions: peptide 10 micrograms per ml, 6 days post-infection
[2] = system: hepatitis B virus (HBV) ayw strain in HepG2-2.2.15 cells; experiment: HBV replication assay (secreted HBV DNA, TaqMan PCR); type: cell-based; conditions: test peptide 10 micrograms per ml; six days; HBV DNA in supernatant
Description: HepG2-2.2.15 is a stable cell line containing the hepatitis B virus (HBV) ayw strain genome (ATCC Cat. No. CRL-11997). Antiviral compounds blocking any late step of viral replication such as transcription, translation, pregenome encapsidation, reverse transcription, particle assembly and release can be identified and characterized using this cell line.
HepG2-2.2.15 cells were plated in 96-well microtiter plates. After 16-24 hours the confluent monolayer of HepG2-2.2.15 cells was washed and the medium was replaced with complete medium containing test peptide—10 micrograms per ml—in duplicate. […] Three days later the culture medium was replaced with fresh medium containing the peptide. Six days following the initial administration of the peptide, the cell culture supernatants was collected, treated with pronase and DNAse and then used in a real-time quantitative TaqMan PCR assay. The PCR-amplified HBV DNA was detected in real-time by monitoring increases in fluorescence signals that result from the exonucleolytic degradation of a quenched fluorescence probe molecule that hybridizes to the amplified HBV DNA. For each PCR amplification, a standard curve was simultaneously generated using dilutions of purified HBV DNA. Antiviral activity was calculated from the reduction in HBV DNA levels (% virus control). […]

[3] = Cytotoxicity in HBV assay (dye uptake cell viability); type: cell-based; conditions: human, HepG2-2.2.15 cells (stable line containing HBV ayw genome), test peptide 10 micrograms per ml, % cell control
[4] = system: Pseudomonas aeruginosa; type: cell-based; conditions: 5 micrograms per ml
[5] = system: Streptococcus pneumoniae; type: cell-based; conditions: 5 micrograms per ml
[6] = system: Human A549 cells; experiment: Propidium iodide cell cycle assay; type: cell-based; conditions: 24 hours, test peptide 10 micrograms per ml
[7] = system: Human Peripheral Blood Mononuclear Cells (PBMC), T cell proliferation; experiment: T cell proliferation assay (PHA, 3H-thymidine); type: cell-based; conditions: test peptide 10 micrograms per ml, 3 days plus 12 hours 3H-thymidine
[8] = system: Human Peripheral Blood Mononuclear Cells (PBMC), B cell proliferation; experiment: B cell proliferation assay (SAC plus IL-2, 3H-thymidine); type: cell-based; conditions: test peptide 10 micrograms per ml, 3 days plus 12 hours 3H-thymidine
[9] = system: RAW 264.7 cells; experiment: Phagocytosis assay (Fluorescein-labeled Escherichia coli); type: cell-based, mouse; conditions: test peptide 10 micrograms per ml
[10] = system: spleen cells of Ovalbumin-immunized Balb/c mice; experiment: Th1/Th2 cytokine profiling assay; type: cell-based, mouse; conditions: test peptide 10 micrograms per ml; Ovalbumin restimulation; 72 hours
[11] = system: TNF alpha production in PBMC-derived macrophages; experiment: TNF alpha production assay (LPS-stimulated macrophages, ELISA); type: cell-based, human; conditions: test peptide 10 micrograms per ml, lipopolysaccharide 200 ng/ml, overnight
Text: Not stimulated macrophages served as negative background control.

[12] = system: Primary Human endothelial cells (HUVEC); experiment: Endothelial cell migration assay; type: cell-based; conditions: test peptide 10 micrograms per ml, 22 hours
[13] = system: HUVEC; experiment: Endothelial tube formation assay; type: cell-based, human; conditions: test peptide 10 micrograms per ml, 20 hours
Text: Positive control was vehicle only.

[14] = system: MRSA; conditions: 5 micrograms per ml
[15] = in vitro; conditions: human, CEM-SS cells
[16] = in vitro; conditions: human, MRC-5 cells (human embryonal lung fibroblasts)
[17] = system: HCMV strain AD169 in MRC-5 cells; experiment: HCMV plaque reduction assay; conditions: HCMV AD169 in MRC-5 cells; peptide 10 micrograms per ml; 7-10 days
[18] = system: HepG2-2.2.15 cells; experiment: Cytotoxicity in HBV assay (dye uptake cell viability); type: cell-based; conditions: test peptide 10 micrograms per ml, % cell control
[19] = system: MRC-5 cells (human embryonal lung fibroblasts); conditions: 6 days
[20] = system: CEM-SS cells; experiment: Cytotoxicity in HIV-1 assay (MTS cell viability); conditions: peptide 10 micrograms per ml

Q: What does the source list for `CSCC[C@H](NC(=O)[C@H](CC(C)C)NC(=O)CNC(=O)[C@@H](NC(=O)[C@H](Cc1ccccc1)NC(=O)[C@H](Cc1ccccc1)NC(=O)[C@H](CC(=O)O)NC(=O)[C@H](Cc1c[nH]cn1)NC(=O)[C@H](CCSC)NC(=O)[C@@H](N)CC(=O)O)C(C)C)C(N)=O` [Neurokinin B]?
A: % CPE reduction in HIV-1 infected CEM-SS cells [1]: 0.0%; % inhibition of HBV replication in HEP G2 cells [2]: 78.5%; viability at 144 h, 10 micrograms per ml [3]: 96.1%; % inhibition [4]: 0.0%; % inhibition [5]: 0.0%; Cell cycle analysis G0/G1 [6]: 53.0; Cell cycle analysis G2/M [6]: 14.8; Cell cycle analysis S [6]: 32.2; % of PHA induced control [7]: 88.1%; % of SAC/IL2 induced control [8]: 115.1%; % of control phagocytosis [9]: 105.9%; IFNγ spleen cells; TH1 response (% of control) [10]: 126.8 % of control; IL-2 spleen cells (% of control) [10]: 198.0 % of control; IL-4 spleen cells; TH2 response (% of control) [10]: 103.5 % of control; IL-5 spleen cells; TH2 response (% of control) [10]: 99.2 % of control; TNF-a spleen cells; TH1 response (% of control) [10]: 151.0 % of control; % of LPS induction [11]: 115.9%; % inhibition of migration [12]: −2%; % inhibition of tube formation [13]: 14%; % inhibition [14]: 0.0%; viability at 10 micrograms per ml [15]: 98.5%; viability at 144 h [16]: 100%; % plaque reduction [17]: 3.2%

Q: With `Nc1ccn([C@@H]2CS[C@H](CO)O2)c(=O)n1` [Compound 3TC, reference compound] as the molecule, how does the “% Cell viability” value [18] read?
A: 95.8%

Q: With `Nc1nc(O)c2ncn(COC(CO)CO)c2n1` [Ganciclovir] as the molecule, how does the “% Cell viability” value [19] read?
A: 100%

Q: For `Cc1cn([C@H]2C[C@H](N=[N+]=[N-])[C@@H](CO)O2)c(=O)[nH]c1=O` [AZT, reference compound], which “% CPE reduction in HIV-1 infected CEM-SS cells” value [1] is on record?
A: 99%

Q: And the “% Cell viability” value [20]?
A: 97%
